# Experimental data published in patent US20090246248A1, “COATING COMPOSITIONS HAVING IMPROVED PERFORMANCE” (priority 2008, published 2009).
# Square brackets hold non-standard residues; d marks the D form. Ends that are not written are not given here. Aun = NCCCCCCCCCCC(=O)O
# Assays:
# [1] = Critical micelle concentration (methyl orange assay); type: physicochemical; conditions: pH 7 PBS, A484
# Description: Formation of a composition of the invention, and evidence of macromolecular network formation, may be monitored or quantified by any means known in the art. In this example, macromolecular formation was detected using a standard assay for determining critical micelle concentration (“CMC”). In this assay, a solution containing the composition of the invention (in a range of concentrations in pH 7 phosphate buffered saline (“PBS”)) was mixed with a solution of methyl orange (0.04 mM in PBS), and the absorbance of the mixture was measured at 484 nm (A484). CMC is the concentration at which a sharp decrease in absorbance at A484 is observed, a change in the optical properties of methyl orange when trapped in a hydrophobic phase, such as caused by self-association as a macromolecular network (Table 7, “CMC”). Also included in this assay were an assay control peptide having an amino acid sequence of SEQ ID NO:122 (Table 7, “Control”), and compound 119 (a PEGylated peptide, the peptide having an amino acid sequence of SEQ ID NO:122, as described in more detail in Example 6 herein).
# [2] = Binding assay for glycopeptide antibiotic (biotinylated vancomycin, immobilized peptide); conditions: peptide immobilized on streptavidin plate
# Description: A typical binding assay for glycopeptide antibiotic was performed according to the following procedure. Briefly, synthetic peptides comprising an amino acid sequence to be characterized for binding were biotinylated to facilitate immobilization on streptavidin-coated 96-well plates. The microtiter plates were coated with streptavidin by adding 50 μl of a 10 μg/ml streptavidin solution in 0.1 M NaHCO3, and incubating the plates for at least 3 hours. The plate wells were blocked by adding 150 μl of a 1% BSA solution in 0.1 NaHCO3 with incubation for at least 2 hours, and the plates were stored at 4° C. until needed. Before use, the streptavidin plates were washed extensively in buffer-T. Added per well was peptide (100 μl 0.1 μM peptide in buffer-T), and then incubated for 30 minutes at room temperature with shaking. 200 μl of 0.5 mM biotin in buffer-T was added to block the remaining streptavidin sites, and plates were incubated for 15 minutes at room temperature. Plates were then washed with buffer-T to remove the excess biotin and peptide. Serial dilutions of biotinylated glycopeptide antibiotic in buffer-T were added (100 μl) to each well, representing a range of concentrations between 100 μM and […]. Plates were incubated for 30 minutes at room temperature with shaking prior to washing several times with buffer-T. Glycopeptide antibiotic was then detected by adding 100 μl of a diluted streptavidin-alkaline phosphatase conjugate to each well and incubated at room temperature for 30 minutes. Excess conjugate was removed by repeated washes with buffer-T, and the amount of alkaline phosphatase remaining in the well was detected using a pNPP (para-nitrophenylphosphate) colorimetric enzymatic assay. The relative amount of glycopeptide antibiotic captured by the peptides was determined by measuring the absorbance at 405 nm of the colored product of the alkaline phosphatase reaction. The EC50 was determined for each peptide relative to the binding affinity for the glycopeptide antibiotic used in the assay, as shown in Table 8 (with vancomycin as a representative glycopeptide antibiotic).
# [3] = Stent flow model, retention of radiolabelled composition on coated stent; type: binding; conditions: 5 ml/min, 37° C.
# Description: In this example, an in vitro model for in vivo stability on a medical device comprising a stent was performed. The stent flow model included a “circulatory system” comprising a peristaltic pump and clear silicone tubing into which is placed a stent (8 mm, stainless steel) coated with a composition according to the invention. Coating of the stents was accomplished by incubating the stents with radiolabelled composition 132 (specific activity 2,400 cpm/pmole at 20 μM in PBS) for 1 hour at 20° C., followed by extensive washing with buffer. […] In another variation of the stent flow model, 10% BSA+10 mM guanidinium chloride was circulated through the circulatory system at a flow rate of 5 ml/min for 18 hours at 37° C. After circulation in the respective variations of the stent flow model, the coated stents were then counted for radioactivity. To serve as an assay “control”, some coated stents were not placed in the stent flow model, but rather counted for radioactive counts to provide a reference from which percent retention could be calculated for those coated stents included in the stent flow model.
# [4] = type: binding; conditions: 18 hour incubation in 10% BSA+10 mM guanidinium chloride; FIG. 1
# Source text: In this example, illustrated are unexpected beneficial properties of the composition of the invention, including but not limited to, one or more improved biophysical properties. Such one or more unexpected beneficial properties of a composition of the invention may comprise an increase in stability. An increase in stability may comprise any one or more of resistance to chemical denaturation, resistance to proteolytic degradation, improved retention to a substrate (e.g., resistance to being competed off a substrate to which it is bound, such as by proteins or other biomolecules found in body tissues). Thus, to ascertain a beneficial property of a composition of the invention, it is compared to the properties of a component of the composition-namely, a substrate-binding peptide by itself (e.g., without fatty acid covalently coupled thereto). An assay was developed that, from our direct comparisons (see, e.g., discussion of FIG. 2 below, and Example 7 herein), mimicked the effect of incubation of substrate-binding peptide with human plasma on stability of binding of a substrate-binding peptide to its substrate. The assay utilized incubations in the presence of 10% bovine serum album (BSA) with 10 mM guanidinium chloride. The high BSA concentration mimics the elevated albumin content of human plasma, and the guanidinium chloride is used to compete with any charged interactions involved in binding of the substrate-binding peptide to its substrate.
# In this assay, two immunoassay plates were prepared for a “side-by-side” comparison of binding of a test sample (substrate-binding peptide or composition of the invention) to its substrate with or without the presence of 10% BSA with 10 mM guanidinium chloride. The wells of each 96-well polypropylene plate were incubated with 350 μl BSA 1% in PBS for 30 minutes at 20° C. with 500 rpm shaking. To each well was added one acetone-cleaned 3/32″ 316LVM stainless steel bead, followed by addition of dilutions in PBS of the test sample in a range of concentrations starting from 10 μM. Final volume in each well was 200 μl. The plates were incubated for 1 hour at 20° C. with 500 rpm shaking to allow for the binding to occur. The beads were washed 3 times with 250 μl PBS using a plate washer. […]
# In the immunoassay for detecting binding without the presence of 10% BSA with 10 mM guanidinium chloride, added to each well was 200 μl of streptavidin AP (AP is alkaline phosphatase) at 1/200 in TBS+1% BSA. […] When color has developed, each well was read at OD405 nm in endpoint mode using a plate reader. […] When color has developed, the wells were read at OD405 nm in endpoint mode using a plate reader. […]
# [5] = test system: Staphylococcus aureus strain MZ100; assay: Tibia pin assay (coated titanium pins with vancomycin, bacterial culture); type: cell-based; design: key: —: no cfus; too many cfus to count, as they converge into one spot; conditions: 3 hours 37° C.
# Source text: In this assay, titanium pins were used as a model for tibia pins. Briefly, sterile pins were first coated with biofunctional composition (“SEQ ID NO:124-linker-SEQ ID NO:122”) comprising a substrate-binding peptide having binding specificity for vancomycin (“SEQ ID NO:124”) linked to a substrate-binding peptide having binding specificity for metal (“SEQ ID NO:122”), or a composition of the invention formed from compound comprising the biofunctional composition covalently coupled to fatty acid. The respective coatings also include vancomycin bound thereto. The coated pins were then placed in a silicone tube containing liquid bacterial growth medium and inoculated with bacteria. After incubation, the pins were removed, and then the liquid growth medium was serially diluted. The serial dilutions were inoculated onto bacterial culture plates, the plates were incubated, and counted on the plates were bacterial colonies.
# In this assay, test samples (biofunctional composition (Table 6, “BC”) or compositions 133, 134, 135, 136 139) each were used to coat a pin by incubating the test sample (in a range of from about 0.8 mM to about 1 mM) with 2.5 μl of a 10 mM vancomycin solution and PBS to a final volume of 250 μl in a microtube (3 pins per tube) for 60 minutes at room temperature with occasional agitation. In a piece of silicone tubing (1.5 mm inner diameter, 50 mm long), added is tryptic soy broth+0.2% glucose, the coated pin, and 103 colony forming units (cfu) of Staphylococcus aureus strain MZ100 in either a 20 μl inoculum, 40 μl inoculum, or 60 μl inoculum. The tubing is clamped closed, and the tubing is incubated for 37° C. for 3 hours. After 3 hours, serial dilutions (1:10, 1:100, 1:1000) were made of the culture media from each tubing, and 10 μl of the undiluted culture medium and of each dilution were spotted onto the bacterial culture plate. The bacterial culture plate was incubated overnight at 37° C., and then the cfus were counted. The results, a composite of different assay runs, are shown in Table 6 (“−” means no cfus; “many” means too many cfus to count, as they converge into one spot; “NT” means not tested).
substance,measurement,setting,value
"SSHRTNHKKNNPKKKNKTRGSSGK [Compound 130, AUD-AUD-AUD-AUD-AUD-AUD-SEQ ID NO: 122]",CMC,[1],0.041 µM
same,EC50,[2],10 µM
"SSHRTNHKKNNPKKKNKTRGSSGK [Compound 131, AUD-AUD-AUD-AUD-AUD-AUD-AUD-AUD-SEQ ID NO: 122]",CMC,[1],0.37 µM
same,EC50,[2],0.1 µM
Ac-Y-AUD-AUD-AUD-AUD-AUD-AUD-SEQ ID NO: 122 (Ac-Y[Aun][Aun][Aun][Aun][Aun][Aun]SSHRTNHKKNNPKKKNKTRGSSGK) [Compound 132],CMC,[1],0.123 µM
same,composition remained bound to the coated stents,"[3]; 10% BSA+10 mM guanidinium chloride, 18 hours",over 90%
same,composition remained bound to the coated stents,"[3]; human plasma, 7 days",over 90%
same,EC50,[2],0.06 µM
"119: Fmoc-NH-(PEG)27-CO2H covalently coupled to a peptide having the amino acid sequence of SEQ ID NO:122 (PEGylated peptide) (SSHRTNHKKNNPKKKNKTRGSSGK; also: Fmoc-NH-(PEG)27-CO2H covalently coupled, site not given here) [Compound 119]",CMC,[1],>>10 μM
same,retention of binding compared to substrate-binding peptide alone (SEQ ID NO:122),[4],failed to promote retention
"SSSCLIDMYGVCHNFDGAYDSSRG [Compound 134, AUD-AUD-AUD-AUD-SEQ ID NO: 124-linker-SEQ ID NO: 122]",EC50,[2],10 µM
same,cfu 1:10,[5]; Volume 20 μl inoculum,—
same,cfu 1:100,[5]; Volume 20 μl inoculum,—
same,cfu 1:1000,[5]; Volume 20 μl inoculum,—
same,cfu undiluted,[5]; Volume 20 μl inoculum,—
same,cfu 1:10,[5]; Volume 40 μl inoculum,6 cfu
same,cfu 1:100,[5]; Volume 40 μl inoculum,1 cfu
same,cfu 1:1000,[5]; Volume 40 μl inoculum,—
same,cfu undiluted,[5]; Volume 40 μl inoculum,many
same,cfu 1:10,[5]; Volume 60 μl inoculum,17 cfu
same,cfu 1:100,[5]; Volume 60 μl inoculum,5 cfu
same,cfu 1:1000,[5]; Volume 60 μl inoculum,—
same,cfu undiluted,[5]; Volume 60 μl inoculum,many
